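96-well plates; 48 h exposure; 5 concentrations. Endpoints by linear interpolation between flanking doses. Not reached: highest tested concentration assigned. GI50 marks 50% less growth.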 Active and inactive are the calls of the source. No stated cut-off is given here; in the data, active = GI50 up to about 1.1 µM and inactive = higher.
Legend:
Experiment in all cases: NCI-60 cell line screen, 48 h
COLO 205 = system: COLO 205
SR = system: SR
OVCAR-8 = system: OVCAR-8
SK-MEL-2 = system: SK-MEL-2
UACC-257 = system: UACC-257
NCI/ADR-RES = system: NCI/ADR-RES
U-251 = system: U-251
SK-OV-3 = system: SK-OV-3
MDA-N = system: MDA-N
EKVX = system: EKVX
HL-60 = system: HL-60
MOLT-4 = system: MOLT-4
A549 = system: A549
K562 = system: K562
RXF 631 = system: RXF 631
M14 = system: M14
SF-539 = system: SF-539
DU-145 = system: DU-145
RXF 393 = system: RXF 393
MDA-MB-435 = system: MDA-MB-435
LXFL 529 = system: LXFL 529
HCT-116 = system: HCT-116
SNB-75 = system: SNB-75
MCF7 = system: MCF7
IGROV-1 = system: IGROV-1
Hs-578T = system: Hs-578T
HOP-62 = system: HOP-62
KM-20L2 = system: KM-20L2
SNB-19 = system: SNB-19
HT-29 = system: HT-29
CAKI-1 = system: CAKI-1
SN12C = system: SN12C
NCI-H522 = system: NCI-H522
786-0 = system: 786-0
NCI-H23 = system: NCI-H23
SF-268 = system: SF-268
PC-3 = system: PC-3
HOP-18 = system: HOP-18
NCI-H460 = system: NCI-H460
HCT-15 = system: HCT-15
OVCAR-3 = system: OVCAR-3
UACC-62 = system: UACC-62
TK-10 = system: TK-10
BT-549 = system: BT-549
MDA-MB-231 = system: MDA-MB-231
SK-MEL-5 = system: SK-MEL-5
CCRF-CEM = system: CCRF-CEM
HOP-92 = system: HOP-92
XF498 = system: XF498
SW-620 = system: SW-620
UO-31 = system: UO-31
OVCAR-4 = system: OVCAR-4
DLD-1 = system: DLD-1
OVCAR-5 = system: OVCAR-5
RPMI-8226 = system: RPMI-8226
SK-MEL-28 = system: SK-MEL-28
KM12 = system: KM12
HCC 2998 = system: HCC 2998
ACHN = system: ACHN
T47D = system: T47D
DMS-114 = system: DMS-114
A498 = system: A498
NCI-H226 = system: NCI-H226
DMS-273 = system: DMS-273
LOX IMVI = system: LOX IMVI
SF-295 = system: SF-295
Malme-3M = system: Malme-3M

## Cn1c2ccccc2c(=O)c2c(O)cc3c(c21)CC(C1(C)CO1)O3 (configuration not stated)
COLO 205
  GI50: 6100 nM (inactive)
SR
  GI50: 111 nM (active)
OVCAR-8
  GI50: 966 nM (active)
SK-MEL-2
  GI50: 887 nM (active)
UACC-257
  GI50: 3930 nM (inactive)
NCI/ADR-RES
  GI50: 1320 nM (inactive)
U-251
  GI50: 3160 nM (inactive)
SK-OV-3
  GI50: 5530 nM (inactive)
MDA-N
  GI50: 1380 nM (inactive)
EKVX
  GI50: 3080 nM (inactive)
HL-60
  GI50: 49.5 nM (active)
MOLT-4
  GI50: 66.5 nM (active)
A549
  GI50: 5160 nM (inactive)
K562
  GI50: 260 nM (active)
RXF 631
  GI50: 3610 nM (inactive)
M14
  GI50: 1510 nM (inactive)
SF-539
  GI50: 3200 nM (inactive)
DU-145
  GI50: 10700 nM (inactive)
RXF 393
  GI50: 1170 nM (inactive)
MDA-MB-435
  GI50: 1640 nM (inactive)
LXFL 529
  GI50: 229 nM (active)
HCT-116
  GI50: 935 nM (active)
SNB-75
  GI50: 7280 nM (inactive)
MCF7
  GI50: 462 nM (active)
IGROV-1
  GI50: 5870 nM (inactive)
Hs-578T
  GI50: 2000 nM (inactive)
HOP-62
  GI50: 3150 nM (inactive)
KM-20L2
  GI50: 4660 nM (inactive)
SNB-19
  GI50: 10400 nM (inactive)
HT-29
  GI50: 4410 nM (inactive)
CAKI-1
  GI50: 2990 nM (inactive)
SN12C
  GI50: 1420 nM (inactive)
NCI-H522
  GI50: 2930 nM (inactive)
786-0
  GI50: 1710 nM (inactive)
NCI-H23
  GI50: 2020 nM (inactive)
SF-268
  GI50: 942 nM (active)
PC-3
  GI50: 3370 nM (inactive)
HOP-18
  GI50: 32300 nM (inactive)
NCI-H460
  GI50: 3290 nM (inactive)
HCT-15
  GI50: 4690 nM
OVCAR-3
  GI50: 3610 nM (inactive)
UACC-62
  GI50: 2160 nM (inactive)
TK-10
  GI50: 11400 nM (inactive)
BT-549
  GI50: 1670 nM (inactive)
MDA-MB-231
  GI50: 2030 nM (inactive)
SK-MEL-5
  GI50: 1790 nM (inactive)
CCRF-CEM
  GI50: 56 nM (active)
HOP-92
  GI50: 9080 nM (inactive)
XF498
  GI50: 1880 nM (inactive)
SW-620
  GI50: 1170 nM (inactive)
UO-31
  GI50: 1420 nM (inactive)
OVCAR-4
  GI50: 8830 nM (inactive)
DLD-1
  GI50: 3640 nM (inactive)
OVCAR-5
  GI50: 6530 nM (inactive)
RPMI-8226
  GI50: 2820 nM (inactive)
SK-MEL-28
  GI50: 2790 nM (inactive)
KM12
  GI50: 2410 nM (inactive)
HCC 2998
  GI50: 1790 nM (inactive)
ACHN
  GI50: 2000 nM (inactive)
T47D
  GI50: 11500 nM (inactive)
DMS-114
  GI50: 2130 nM (inactive)
A498
  GI50: 11200 nM (inactive)
NCI-H226
  GI50: 13300 nM (inactive)
DMS-273
  GI50: 21900 nM (inactive)
LOX IMVI
  GI50: < 11.1 nM (active)
SF-295
  GI50: 9440 nM (inactive)
Malme-3M
  GI50: 10500 nM (inactive)

— ChEMBL document CHEMBL1201862, “PubChem BioAssay data set” (2004)
